Measured values reported in ChEMBL document CHEMBL1909294, “Translating clinical findings into knowledge in drug safety evaluation--drug induced liver injury prediction system (DILIps)” (PLoS Comput Biol, 2011).

How the values were obtained:
Hepatotoxicity [1] = system: Hepatotoxicity;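 on HepSE Combined Scores: combined hepatic side effect score as listed in the training data of the Drug Induced Liver Injury Prediction System (DILIps)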;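 on HepSE cholecystitis: Cholecystitis-related hepatic side effect score drawn from the DILIps (drug-induced liver injury prediction) training data set; call rule not given here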;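 on HepSE cirrhosis: cirrhosis hepatic side effect score taken from the DILIps (drug-induced liver injury prediction) training set; call rule not given here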; on HepSE hepatic failure: call rule not given here;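 on HepSE hepatic necrosis: score of hepatic side effects for hepatic necrosis, drawn from the training data of DILIps, a prediction system for drug-induced liver injury; call rule not given here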;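 on HepSE hepatomegaly: hepatic side effect score for hepatomegaly, taken from the training set of the DILIps drug-induced liver injury prediction system; call rule not given here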;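 on HepSE liver fatty: hepatic side effect score for fatty liver, taken from the DILIps training set for predicting drug-induced liver injury; call rule not given here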
Hepatotoxicity [2] = system: Hepatotoxicity; remark: listed apart in the source;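 on HepSE Combined Scores: combined hepatic side effect score as listed in the training data of the Drug Induced Liver Injury Prediction System (DILIps)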;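 on HepSE cholecystitis: Cholecystitis-related hepatic side effect score drawn from the DILIps (drug-induced liver injury prediction) training data set; call rule not given here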;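 on HepSE cirrhosis: cirrhosis hepatic side effect score taken from the DILIps (drug-induced liver injury prediction) training set; call rule not given here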; on HepSE hepatic failure: call rule not given here;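 on HepSE hepatic necrosis: score of hepatic side effects for hepatic necrosis, drawn from the training data of DILIps, a prediction system for drug-induced liver injury; call rule not given here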;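 on HepSE hepatomegaly: hepatic side effect score for hepatomegaly, taken from the training set of the DILIps drug-induced liver injury prediction system; call rule not given here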;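 on HepSE liver fatty: hepatic side effect score for fatty liver, taken from the DILIps training set for predicting drug-induced liver injury; call rule not given here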
Hepatotoxicity [3] = system: Hepatotoxicity; remark: listed apart in the source;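 on HepSE Combined Scores: combined hepatic side effect score as listed in the training data of the Drug Induced Liver Injury Prediction System (DILIps)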;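 on HepSE cholecystitis: Cholecystitis-related hepatic side effect score drawn from the DILIps (drug-induced liver injury prediction) training data set; call rule not given here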; on HepSE hepatic failure: call rule not given here;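 on HepSE hepatic necrosis: score of hepatic side effects for hepatic necrosis, drawn from the training data of DILIps, a prediction system for drug-induced liver injury; call rule not given here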;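 on HepSE hepatomegaly: hepatic side effect score for hepatomegaly, taken from the training set of the DILIps drug-induced liver injury prediction system; call rule not given here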;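 on HepSE liver fatty: hepatic side effect score for fatty liver, taken from the DILIps training set for predicting drug-induced liver injury; call rule not given here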
Hepatotoxicity [4] = system: Hepatotoxicity; remark: listed apart in the source;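 on HepSE Combined Scores: combined hepatic side effect score as listed in the training data of the Drug Induced Liver Injury Prediction System (DILIps)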;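 on HepSE cholecystitis: Cholecystitis-related hepatic side effect score drawn from the DILIps (drug-induced liver injury prediction) training data set; call rule not given here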; on HepSE hepatic failure: call rule not given here;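 on HepSE hepatic necrosis: score of hepatic side effects for hepatic necrosis, drawn from the training data of DILIps, a prediction system for drug-induced liver injury; call rule not given here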;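 on HepSE hepatomegaly: hepatic side effect score for hepatomegaly, taken from the training set of the DILIps drug-induced liver injury prediction system; call rule not given here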;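 on HepSE liver fatty: hepatic side effect score for fatty liver, taken from the DILIps training set for predicting drug-induced liver injury; call rule not given here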
Hepatotoxicity [5] = system: Hepatotoxicity; remark: listed apart in the source; on HepSE hepatic failure: call rule not given here
Hepatotoxicity [6] = system: Hepatotoxicity; remark: listed apart in the source; on HepSE hepatic failure: call rule not given here
Hepatotoxicity [7] = system: Hepatotoxicity; remark: listed apart in the source
Hepatotoxicity [8] = system: Hepatotoxicity; remark: listed apart in the source
Hepatotoxicity [9] = system: Hepatotoxicity; remark: listed apart in the source
Hepatotoxicity [10] = system: Hepatotoxicity; remark: listed apart in the source
Hepatotoxicity [11] = system: Hepatotoxicity; remark: listed apart in the source
Hepatotoxicity [12] = system: Hepatotoxicity; remark: listed apart in the source
Hepatotoxicity [13] = system: Hepatotoxicity; remark: listed apart in the source
Hepatotoxicity [14] = system: Hepatotoxicity; remark: listed apart in the source

| Compound | HepSE_hepatomegaly (Hepatotoxicity [1]) | HepSE_cholecystitis (Hepatotoxicity [2]) | HepSE_liver fatty (Hepatotoxicity [3]) | HepSE_hepatic necrosis (Hepatotoxicity [4]) | HepSE_hepatic failure (Hepatotoxicity [5]) | HepSE_Combined Scores (Hepatotoxicity [6]) | HepSE_hepatitis (Hepatotoxicity [7]) | HepSE_cirrhosis (Hepatotoxicity [8]) | HepSE_elevated liver function tests (Hepatotoxicity [9]) | HepSE_bilirubinemia (Hepatotoxicity [10]) | HepSE_liver function tests abnormal (Hepatotoxicity [11]) | HepSE_liver disease (Hepatotoxicity [12]) | HepSE_jaundice (Hepatotoxicity [13]) | HepSE_cholelithiasis (Hepatotoxicity [14]) | also measured |
| --- | --- | --- | --- | --- | --- | --- | --- | --- | --- | --- | --- | --- | --- | --- | --- |
| COLESEVELAM HYDROCHLORIDE | 0 | 0 | 0 | 0 | 0 | 0 | 0 | 0 | 0 | 0 | 0 | 0 | 0 | 0 | – |
| NITROPRUSSIDE | 0 | 0 | 0 | 0 | 0 | 0 | 0 | 0 | 0 | 0 | 0 | 0 | 0 | 0 | – |
| Nc1nc(O)c2ncn(COC(CO)CO)c2n1 [GANCICLOVIR] | 0 | 0 | 0 | 0 | 1 | 4 | 1 | 0 | 0 | 0 | 0 | 0 | 1 | 1 | – |
| Cc1ccc(C)c(OCCCC(C)(C)C(=O)O)c1 [GEMFIBROZIL] | 0 | 1 | 0 | 0 | 0 | 4 | 0 | 0 | 0 | 0 | 1 | 0 | 1 | 1 | – |
| CN(C)CCc1c[nH]c2ccc(CS(=O)(=O)N3CCCC3)cc12 [ALMOTRIPTAN] | 0 | 0 | 0 | 0 | 0 | 0 | 0 | 0 | 0 | 0 | 0 | 0 | 0 | 0 | – |
| C[C@H](O)C(=O)Nc1c(I)c(C(=O)NC(CO)CO)c(I)c(C(=O)NC(CO)CO)c1I [IOPAMIDOL] | 0 | 0 | 0 | 0 | 0 | 0 | 0 | 0 | 0 | 0 | 0 | 0 | 0 | 0 | – |
| CC(NC(C)(C)C)C(=O)c1cccc(Cl)c1 (stereo unspecified) [BUPROPION] | 0 | 0 | 0 | 0 | 0 | 2 | 1 | 0 | 0 | 0 | 0 | 0 | 1 | 0 | – |
| CC(CN1c2ccccc2Sc2ccccc21)N(C)C (stereo unspecified) [PROMETHAZINE] | 0 | 0 | 0 | 0 | 0 | 1 | 0 | 0 | 0 | 0 | 0 | 0 | 1 | 0 | – |
| NNc1nncc2ccccc12 [HYDRALAZINE] | – | – | – | – | – | – | – | – | – | – | – | – | – | – | HepSE_hepatomegaly (Hepatotoxicity [1]; Liver): 0; HepSE_cholecystitis (Hepatotoxicity [2]; Liver): 0; HepSE_liver fatty (Hepatotoxicity [3]; Liver): 0; HepSE_hepatic necrosis (Hepatotoxicity [4]; Liver): 0; HepSE_hepatic failure (Hepatotoxicity [5]; Liver): 0; HepSE_Combined Scores (Hepatotoxicity [6]; Liver): 1; HepSE_hepatitis (Hepatotoxicity [7]; Liver): 1; HepSE_cirrhosis (Hepatotoxicity [8]; Liver): 0; HepSE_elevated liver function tests (Hepatotoxicity [9]; Liver): 0; HepSE_bilirubinemia (Hepatotoxicity [10]; Liver): 0; HepSE_liver function tests abnormal (Hepatotoxicity [11]; Liver): 0; HepSE_liver disease (Hepatotoxicity [12]; Liver): 0; HepSE_jaundice (Hepatotoxicity [13]; Liver): 0; HepSE_cholelithiasis (Hepatotoxicity [14]; Liver): 0 |
